Source: US20100130597A1, “DNA-PKCS MODULATES ENERGY REGULATION AND BRAIN FUNCTION” (The United State of America, as represented by the …, priority 2007, published 2010)
Blank lines part the entries; values can stand above or below the compound they belong to.

Tests used:
[1] = Elevated plus maze test; type: in vivo, mice; settings: SCID mice, intraperitoneal injection, FIG. 33
Method: To evaluate whether SCID mice may also have altered anxiety, fear and depression-like traits, an elevated plus maze test was performed, which is a commonly used test to quantify the level of anxiety- and depression-like traits in rodents (Pellow et al. J. Neurosci. Methods 14: 149-67 (1985)). The elevated plus maze has narrow runways that are located 16 inches above the surface that are either closed or open. The animal is placed in the center of an elevated 4-arm maze in which 2 arms are open and 2 are enclosed. Mice generally avoid the open arms because of their fear of open space and height. The elevated plus-maze is used to determine the rodent's response to a potentially dangerous environment and anxiety-related behavior is measured by the degree to which the rodent avoids the unenclosed arms of the maze. Increase in the number of times the animal enters the open arm and the amount of time spent in the open arms reflect decreased anxiety and depression.
(§1) Elevated plus maze tests, light/dark chamber tests, forced swim tests (FST) and hot plate tests were performed as described earlier.

[2] = Hot plate test, latency for pain reaction; type: in vivo, mice; settings: data not shown
Method: Epidemiological studies indicate that people with mood disorders are twice as likely to have chronic pain compared to people without mood disorders (Ohayon et al., Arch. Gen. Psychiatry 60: 39-47 (2003)). Although it is possible that pain contributes to the depressed mood, it is also possible that perception of pain is increased in people with mood disorders. To determine whether SCID mice have altered pain tolerance, the latency for pain reaction to a hot plate was measured. […] (FIG. 30) and at 55° C.
Because tolerance to pain (Example 26) is also linked to the serotonergic pathways, measurements of the latency to pain reaction on hot plate after saline, serotonin reuptake inhibitor fluoxetine (Prozac) or serotonin antagonist GR38032F (Zofran) injection were made.
as §1

[3] = tested on: MCF7 cells; experiment: Reactive oxygen species production in MCF7 cells (CM-H2DCFDA); type: cell-based; settings: for Reactive oxygen species production: NU 7026 5 μM 12 h, DNP 200 μM 10 min, Troglitazone 30 μM 4 hr, Euk-134 5 μM 3 h, MnTBAP 14 μM 3 h, FIG. 4
Source text: Measurement of intracellular reactive oxygen species was based on changes in the fluorescence intensity of redox-sensitive fluorescent probes, including CM-H2DCFDA. CM-H2DCFDA is a probe for intracellular hydrogen peroxide (Jou M J et al. J. Biomed Sci 9:507 (2002)). CM-H2DCFDA rapidly diffuses into cells, reacts with intracellular glutathione and thiols, and yields a fluorescent product that is retained inside the cell (Shanker G et al. Mol Brain Res 128:48, 2004). The fluorescence intensity of CM-H2DCFDA is therefore indicative of the amount of intracellular H2O2.
Briefly, cells were incubated with 10 uM CM-H2DCFDA for 30 min at 37° C. The cells were then excited at the peak excitation wavelength for CM-H2DCFDA (485 nm) and emissions at 535 nm were measured with Wallac Victor multilable counter (Perkin Elmer). For glucose treatment, the total sugar content in the media was kept constant by supplementing with mannitol, which is not metabolized.
MCF-7 cells were obtained from ATCC and grown as recommended. Confluent MCF-7 cells were incubated with serum-free DMEM medium for 3-12 h before the experiment. MCF-7 cells were then treated with DNA-PK inhibitor NU 7026 (5 μM; Calbiochem) for 12 h, DNP (200 μM; Sigma) for 10 min, Troglitazone (30 μM) for 4 hr, Euk-134 (5 μM; Eukarion) for 3 h, MnTBAP (14 μM; Calbiochem) for 3 h and Resveratrol.

[4] = molecular target: DNA-PK (Homo sapiens, UniProt P78527); settings: Hardcastle et al., J. Med. Chem. 48: 7829-46 (2005); read-out: IC50 against DNA-PK; cited from earlier work
[5] = molecular target: T1, DNA-PKcs (Homo sapiens, UniProt P78527); experiment: DNA-PKcs activation in MCF7 cells, immunoblot for phosphorylated Ser2056; type: cell-based; settings: for DNA-PKcs activation in the presence of 25 mM glucose: MCF7 cells, FIG. 5
T1 construct: endogenous in cells; host or cells: MCF7 (ATCC)
Method: MCF7 cells were obtained from the ATCC. MCF7 cells in G0 were treated with varying doses of H2O2 (FIG. 1). The cells were examined while in the G0 phase of their life cycle to mimic the post-mitotic state of cells in vivo. Low passage MCF-7 cells in G0 were exposed to varying concentrations of H2O2 for 60 minutes with or without Euk-134 or ionizing radiation (5 Gy). For Western blot analysis of DNA-PKcs activation and the activation of other signaling pathways in this study, the following antibodies were used: ACC1 (Cell Signaling); p-ACC1 (Upstate); AMP-activated protein kinase (AMPK; Cell Signaling); p-AMPK(T172) (Cell Signaling); DNA-PK (Lab Vision); p53 (Novocastra); p-DNA-PK(S2056) (Abeam); p-p53(S15) (Cell Signaling); γ-H2AX (Upstate); 53BP1 (Novus Biologicals).
Activation of DNA-PKcs was visualized by immunoblotting cell lysates with antibody specific for phosphorylated Ser2056, which is autophosphorylated during DNA-PKcs activation (Chen et al., J. Biol. Chem. 280: 14709-15 (2005)) (FIG. 1). […] Instead, H2O2 increased DNA-PKcs activation, and such activation was abrogated by the antioxidant Euk-134 (FIG. 1), a potent synthetic superoxide dismutase and catalase mimetic (Chatterjee, Am. J. Nephrol. 24: 165-77 (2004)).
MCF7 cells were then cultured in 25 mM glucose. Aliquots of the cultured MCF7 cells were treated with ionizing radiation and/or the DNA-PKcs-specific inhibitor NU7026. Treatment with glucose and ionizing radiation increased DNA-PKcs phosphorylation (data not shown). […] The basal activity of DNA-PKcs in MCF-7 cells in 25 mM glucose was detectable even in the absence of ionizing radiation, but this basal activity was suppressed with the DNA-PKcs-specific inhibitor NU7026 (data not shown).

[6] = tested on: Sirt1 and PGC-1α; experiment: Sirt1 and PGC-1α expression in C2C12 myoblasts; type: cell-based
Method: (§2) Increased mitochondrial function boosts energy production and physical endurance. […] Further tests were therefore conducted to ascertain whether DNA-PKcs inhibitor elevates mitochondrial biogenesis and expression of PGC-1α and Sirt, which are important for mitochondrial biogenesis. […] It is important to note that only 2.5 μM of NU7026 was required to induce a similar level of Sirt1 to that induced by 25-50 μM Resveratrol, a well-known, potent Sirt1 activator.

[7] = tested on: C2C12 cells; experiment: Mitochondrial DNA copy number in C2C12 cells; type: cell-based; settings: C2C12 myoblasts, FIG. 49C
Method: Quantitative Real-Time PCR was used to assess the relative amounts of nuclear DNA and mtDNA, to permit assessment of the ratio of mtDNA to nucleic DNA, which reflects the tissue concentration of mitochondria per cell. Muscle tissues were homogenized and digested with Proteinase K overnight in a lysis buffer for DNA extraction by conventional phenol-chloroform method. Quantitative PCR was performed using the following primers: […]
as §2, with “activator. In FIG. 49C, mitochondrial DNA copy number increased (>1.8 fold) in C2C12 cells after 2.5 μM NU7026 treatment.” for “activator.”

[8] = tested on: LKB1; experiment: LKB1 activation (LKB1 phosphorylation) in C2C12 cells; type: cell-based; settings: NU7026 2.5 μM, Resveratrol 50 μM, FIG. 51A
Method: Cells were treated with DNA-PKcs inhibitors to ascertain whether DNA-PKcs suppresses LKB1 activity in vitro.

[9] = tested on: neurons; settings: low concentrations; De Felice et al. 2001; cited from earlier work
[10] = Treadmill running endurance; type: in vivo, mice; settings: ob/ob mice, FIG. 39
Method: Previous studies have shown that increased expression of PPARδ or PGC-1α in skeletal muscle decreases exercise-induced fatigue. Therefore, tests were performed to ascertain what was the physical endurance of 4, 7 and 14 month-old SCID and WT mice using treadmill running. Prior to the exercise test, the mice were accustomed to and trained by running on an Exer-3/6 mouse treadmill (Columbus Instruments) at 7 m/min for 5 minutes for 3 days. For the endurance test, the treadmill speed was increased to 10 m/min and mice were allowed to run until exhaustion.
The therapeutic potential of DNA-PKcs inhibitors to reverse physical decline with aging was tested. In particular, the physical endurance of obese and middle-aged mice treated with Cpd36 was examined by treadmill running. Obese mice fed a high-fat diet that were treated with Cpd36 were able to run 40-50% farther over a given period of time than the control mice fed the same high fat diet (FIG. 45), as measured by totaling the distance run on a treadmill. Middle-aged mice (13 months) fed a breeder diet who were similarly treated with Cpd36 were also able to run 40-50% farther than middle aged mice that received no such treatment (data not shown).

[11] = ROS levels in tissues of ob/ob mice; type: in vivo; settings: FIG. 38
[12] = in vitro; cited from earlier work
[13] = rats, systemic administration of kainic acid; Rong et al. 1999; cited from earlier work
[14] = middle cerebral artery ligation; Baker et al. 1998; cited from earlier work

Compound: Cc1nccn1CC1CCc2c(c3ccccc3n2C)C1=O.Cl (stereo not drawn) [GR38032F]
- number of SCID mice that stayed in the open arm 30 sec or longer [1]: decreased dramatically
- latency for pain reaction on hot plate ([2]; SCID mice): decreased the latency for pain reaction in SCID mice
- latency for pain reaction on hot plate ([2]; wild-type mice): not wild-type mice

Compound: CNCCC(Oc1ccc(C(F)(F)F)cc1)c1ccccc1 (stereo not drawn) [Fluoxetine]
- latency for pain reaction on hot plate ([2]; wild-type mice): increased the latency for pain reaction in wild-type mice

Compound: Cc1c(C)c2c(c(C)c1O)CCC(C)(COc1ccc(CC3SC(=O)NC3=O)cc1)O2 (racemic) [TZD, (±)-[[4-[(3,4-dihydro-6-hydroxy-2,5,7,8-tetramethl-2H-1-benzopyran-2-yl)methoxy]phenyl]methyl]-2,4-thiazolidinedione]
- Reactive oxygen species production [3]: significantly decreased

Compound: O=c1cc(N2CCOCC2)oc2c(-c3cccc4c3sc3ccccc34)cccc12 [NU7441, 8-dibenzothiophen-4-yl-2-morpholin-4-yl-chromen-4-one]
- IC50 [4]: 13 nM

- DNA-PKcs activation in the presence of 25 mM glucose [5]: decreased DNA-PKcs activation
Compound: Oc1ccc(/C=C/c2cc(O)cc(O)c2)cc1 [Resveratrol]
- Reactive oxygen species production [3]: significantly decreased
- concentration required to induce a similar level of Sirt1 [6]: 25 to 50 µM
- PGC-1α and Sirt1 expression ([6]; FIG. 49): increased
- relative copy number of mitochondrial DNA [7]: increases
- LKB1 activation (LKB1 phosphorylation) [8]: showed LKB1 activation

Compound: O=[N+]([O-])c1ccc(O)c([N+](=O)[O-])c1 [DNP, 2,4-dinitrophenol]
- DNA-PKcs activation in the presence of 25 mM glucose [5]: decreased DNA-PKcs activation
- Reactive oxygen species production [3]: significantly decreased
- protection of neurons against amyloid-beta peptide toxicity [9]: protect neurons against the toxicity of the amyloid-beta peptide

- H2O2-induced DNA-PKcs activation ([5]; MCF7 cells in G0, H2O2 60 minutes, FIG. 1): abrogated
- DNA-PKcs activation in the presence of 25 mM glucose [5]: decreased DNA-PKcs activation
Compound: Euk-134
- Reactive oxygen species production [3]: significantly decreased
- glucose-induced reactive oxygen species production ([3]; glucose 0-25 mM, 3 hr, FIG. 2): partially suppressed
- treadmill running ability [10]: increased running ability of ob/ob mice dramatically
- ROS production in muscle, WAT and heart tissues [11]: decreased ROS production
- hydrogen peroxide consumption [12]: consumes hydrogen peroxide in vitro
- oxidative stress and brain damage [13]: prevent oxidative stress and attenuate brain damage
- effect in rat stroke model [14]: protective effects

- DNA-PKcs activation in the presence of 25 mM glucose [5]: decreased DNA-PKcs activation
Compound: CN(C)C(=N)NC(=N)N [metformin]

Compound: Manganese (III) tetrakis(4-benzoic acid)porphyrin [MnTBAP]
- DNA-PKcs activation in the presence of 25 mM glucose [5]: decreased DNA-PKcs activation
- Reactive oxygen species production [3]: significantly decreased
